Results published in patent US5968967A, “Pyrazolones derivatives” (Nissan Chemical Industries, Ltd., priority 1995, dated 1999).
Counter-ions that a name gives are not always drawn. Like-named read-outs stand apart in the source and are kept apart here.

Test system: Guinea-pig PRP (platelet aggregation)
Experiment: (A) In vitro antiplatelet aggregation effect in guinea pigs (PRP), Table IV-1
Assay type: cell-based, guinea pig (Hartley male)
Conditions: Cavia porcellus, PRP 300,000/mm^3, 37° C.
Method: Nine parts by volume of blood was collected from the abdominal artery of Hartley male guinea-pigs (weight: about 300 g) in syringes containing 1 part by volume of 3.8% sodium citrate. The blood thus obtained was centrifuged at 200×g for 10 minutes at room temperature to obtain platelet rich plasma (PRP). Furthermore, the residue was centrifuged at 2000×g for 15 minutes to obtain platelet poor plasma (PPP). The measurement was effected by diluting PRP with PPP to 300,000/mm^3. PRP and PPP were put in cuvettes, and the measurement range of transmittance was adjusted to 0% in the case of PRP and to 100% in the case of PPP. Thereafter, a test sample drug dissolved in H2 O:MeOH (1:2) was added to PRP. After the PRP was incubated at 37° C. at 1000 rpm for 2 minutes, an aggregating agent was added to record an aggregation curve. The antiplatelet aggregation effect of the test sample drug was expressed by the concentration (IC50 : μM) at which the aggregation of the control sample was 50% inhibited. […] The measurement of platelet aggregation was carried out by using NBS HEMA TRACER 601.
In vitro antiplatelet aggregation tests; (A) and (B) Tables IV-1 and 2 show antiplatelet aggregation effects of test compounds evaluated as IC50 values (μM). The compound Nos. in Table I should be referred to for the structures of the compounds.

[1] = aggregating agent ADP, read-out: Guinea-pig PRP IC50, ADP
[2] = aggregating agent collagen 1 to 2 μg/ml, read-out: Guinea-pig PRP IC50, Collagen

Structure (SMILES)	IC50 [1]	IC50 [2]
Cn1c(-c2ccc(-c3ccccc3)cc2)c(C(=O)NC2CCN(CC(=O)O)CC2)c(=O)n1-c1ccc(C(=N)N)cc1 [compound 125]	42 µM	4.2 µM
Cn1c(-c2ccccc2)c(C(=O)N2CCC(OCC(=O)O)CC2)c(=O)n1-c1ccc(C(=N)N)cc1 [compound 17]	20 µM	23 µM
CCOC(=O)CN(C)C1CCN(C(=O)c2c(-c3ccc(C(C)(C)C)cc3)n(C)n(-c3ccc(C(=N)N)cc3)c2=O)CC1 [compound 116]	–	90 µM
CN(CC(=O)O)C1CCN(C(=O)c2c(-c3ccc(C(C)(C)C)cc3)n(C)n(-c3ccc(C(=N)N)cc3)c2=O)CC1 [compound 115]	93 µM	68 µM
CCOC(=O)COC1CCN(C(=O)c2c(-c3ccc(-c4ccc(Cl)cc4)cc3)n(C)n(-c3ccc(C(=N)N)cc3)c2=O)CC1 [Compound No. 2]	8.1 µM	3.9 µM
CCOC(=O)CN1CCC(NC(=O)c2c(-c3ccc(C(C)(C)C)cc3)n(C)n(-c3ccc(C(=N)N)cc3)c2=O)CC1 [compound 110]	5 µM	3.1 µM
Cn1cc(C(=O)N2CCC(OCC(=O)O)CC2)c(=O)n1-c1ccc(C(=N)N)cc1 [Compound No. 10]	35 µM	17 µM
CCOC(=O)COCCNC(=O)c1c(-c2ccc(C(C)(C)C)cc2)n(C)n(-c2ccc(C(=N)N)cc2)c1=O [compound 25]	43 µM	20 µM
CN(C(=O)c1c(-c2ccc(C(C)(C)C)cc2)n(C)n(-c2ccc(C(=N)N)cc2)c1=O)C1CCN(CC(=O)O)CC1 [compound 111]	11 µM	8.1 µM
CCOC(=O)COC1CCN(C(=O)c2c(-c3ccc(-c4ccccc4)cc3)n(C)n(-c3ccc(C(=N)N)cc3)c2=O)CC1 [compound 23]	17 µM	9.3 µM
CCOC(=O)CN1CCC(NC(=O)c2c(-c3ccc(-c4ccccc4)cc3)n(C)n(-c3ccc(C(=N)N)cc3)c2=O)CC1 [compound 126]	76 µM	7.6 µM
CCOC(=O)CN(C=O)C1CCN(C(=O)c2c(-c3ccc(C(C)(C)C)cc3)n(C)n(-c3ccc(C(=N)N)cc3)c2=O)CC1 [compound 114]	21 µM	14 µM
CCOC(=O)CN1CCC(N(C)C(=O)c2c(-c3ccc(C(C)(C)C)cc3)n(C)n(-c3ccc(C(=N)N)cc3)c2=O)CC1 [compound 112]	37 µM	14 µM
CCCCc1ccc(-c2c(C(=O)N3CCC(OCC(=O)OCC)CC3)c(=O)n(-c3ccc(C(=N)N)cc3)n2C)cc1 [compound 128]	20 µM	7.1 µM
Cn1c(-c2ccc(C(C)(C)C)cc2)c(C(=O)NCCOCC(=O)O)c(=O)n1-c1ccc(C(=N)N)cc1 [compound 24]	46 µM	19 µM
CCOC(=O)COCCNC(=O)c1c(-c2ccc(-c3ccccc3)cc2)n(C)n(-c2ccc(C(=N)N)cc2)c1=O [compound 20]	30 µM	12 µM
Cn1c(-c2ccc(C(C)(C)C)cc2)c(C(=O)N2CCC(OCC(=O)O)CC2)c(=O)n1-c1ccc(C(=N)N)cc1 [Compound No. 28, 1-(4-amidinophenyl)-3-(4-t-butylphenyl)-4-([4-(carboxymethyloxy)-1-piperidinyl]carbonyl}-2-methyl-2H-pyrazol-5-one hydrochloride]	25 µM	17 µM
CCOC(=O)COC1CCN(C(=O)c2cn(C)n(-c3ccc(C(=N)N)cc3)c2=O)CC1 [Compound No. 11]	31 µM	17 µM
Cn1c(-c2ccc(C(C)(C)C)cc2)c(C(=O)NC2CCN(CC(=O)O)CC2)c(=O)n1-c1ccc(C(=N)N)cc1 [compound 109]	3.4 µM	4 µM
Cn1cc(C(=O)NCCCOCC(=O)O)c(=O)n1-c1ccc(C(=N)N)cc1 [compound 7]	300 µM	–
CCOC(=O)COCCN(C)C(=O)c1c(-c2ccccc2)n(C)n(-c2ccc(C(=N)N)cc2)c1=O [compound 15]	114 µM	57 µM
